Tested on: influenza virus A/M2-V27A/L38F
Assay type: cell-based, Influenza A/Udorn/72 virus (recombinant mutant)

Compound	Plaque count	effect on plaque formation (count and size)
NC12CC3CC(CC(C3)C1)C2 [Amantadine, amantadine]	82 plaques/well	failed to inhibit plaque formation
C1CCC2(CC1)CCN(C1=NCCN1)CC2 [BL-1743, 2-[3-azaspiro([5],[5])undecanol]-2-imidazoline]	86 plaques/well	failed to inhibit plaque formation
NC1CCC2(CCCCC2)CC1 [Compound 8, spiro[5.5]undecan-3-amine]	37 plaques/well	reduced

From paper PMC2794939 (Biochemistry, 2009)
